Reference: patent US11072592B2, “Small molecules that enable cartilage rejuvenation” (The Regents of the University of California, priority 2015, dated 2021)
“Also recorded” adds a separate entry of the source.

Assays:
[1] = system: adult pig articular cartilage explants; assay: Proliferation (EdU) and marker expression in adult articular cartilage explants; format: cell-based
Protocol: FIGS. 26A-26J. LIF/STAT3/MYC signaling is prominent in fetal articular chondrocytes and can activate a fetal-like phenotype in adult cells. (FIG. 26A) Levels of phospho-STAT3 (pSTAT3) and MYC protein were quantitated in human fetal and adult articular chondrocytes relative to histone H3. (FIG. 26B) Effects of soluble LIF receptor (sLIFR) on MYC and pSTAT3 protein levels on fetal articular chondrocytes after 72 hours. (FIG. 26C) Detection of apoptotic cells using TUNEL staining and flow cytometry analysis of fetal articular cartilage explants cultured in the absence (control) or presence of a MYC (10058-F4) or STAT3 (STATTIC) inhibitor for 24 hours. (FIG. 26D) Quantification of proliferating cells via EdU incorporation in fetal articular cartilage explants and also by flow cytometry analysis for BrdU. Scale bars represent 100 μm. (FIG. 26E) Assessment of metabolic activity of human fetal articular chondrocytes cultured in the presence or absence of MYC or STAT3 inhibitors. (FIG. 26F) Migration capacity of fetal articular chondrocytes was assessed using a Transwell® assay in the absence or presence of MYC and STAT3 inhibitors. (FIG. 26G) Protein levels of MYC and pSTAT3 were measured in adult human articular chondrocytes with and without incubation with LIF. Data are shown normalized to histone H3. (FIG. 26H) Migratory capacity of adult human articular chondrocytes in a Transwell® assay measured in the presence or absence of LIF. (FIG. 26I) Single adult human articular chondrocytes were cultured with or without LIF for 5 weeks to allow detection of colony-forming cells. […]
FIGS. 28A-28I. […] (FIG. 28A) Adult human articular chondrocytes were incubated with or without RCGD 423 and levels of MYC and pSTAT3 were quantified relative to histone H3. (FIG. 28B) Levels of MYC and pSTAT3 protein were measured in pig adult articular chondrocytes to determine the effects of RCGD 423 in a dose- and time-dependent manner; histone H3 was used as a loading control. (FIG. 28C) Migration of adult human articular chondrocytes in a Transwell® assay was assessed in the presence and absence of RCGD 423. […]

pSTAT3 and MYC = pSTAT3 and MYC in other cells/tissues; format: cell-based; conditions: embryonic stem cells and the heart; unpublished preliminary data
Text: Based on the functional properties elicited by RCGD 423, we propose that it (or compounds functionally similar to it) may represent core components of treatment regimens for articular cartilage injury.

adult chondrocytes = assay: Collagen 2 production by adult chondrocytes; format: cell-based; conditions: compared with control (DMSO)
Text: FIGS. 21A-21B. […] (FIG. 21A) cell sorting results for isotype (left), BMPR18^neg (middle), and BMPR18+ cells (right). (FIG. 21B) CRM-423 (right panel) stimulates collagen 2 product by adult chondrocytes compared with control (DMSO, left panel).
Cmpd 423 stimulates collagen 2 product by adult chondrocytes (FIG. 21B).

BMPR1B+ chondrocytes = assay: Retention of BMPR1B+ chondrocytes in culture (flow cytometry); format: cell-based, pig
Protocol: FIG. 35. RCGD 423 Preserves BMPR1B+ Chondrocytes in Culture. Adult pig chondrocytes were cultured in the presence of various cytokines or RCGD 423 and the number of cells expressing BMPR1B were quantitated using flow cytometry. Know mitogens for cartilage, including PDGF-BB and FGF2, promoted dramatic loss of BMPR1B^+ cells. In contrast, RCGD 423 and LIF acted to maintain cells with the BMPR1B+ phenotype.
BMPR1B+LIFR+ human adult articular chondrocytes were sorted using FACS and deposited in 96-well culture plates at density 10,000 cells per well in DMEM/F12 culture medium (Invitrogen) supplemented with 1% FBS. Growth factors or RCGD 423 were added at the time of plating. After 1, 3 and 7 days cultures were re-analyzed with FACS using an antibody against BMPR1B.

Molecule	proliferation of chondrocytes in adult cartilage explants (EdU) [1]	expression of the stem/progenitor cell marker ALDH 1A1 in the surface layer ([1]; adult pig cartilage explants, LIF 50 ng/mL for 3 days)	pSTAT3 and MYC proteins in other cells/tissues (pSTAT3 and MYC)	collagen 2 production by adult chondrocytes (adult chondrocytes)	BMPR1B+ chondrocytes in culture (BMPR1B+ chondrocytes)
LIF: interleukin 6 (IL-6)-class cytokine	stimulated proliferation; also recorded: significantly increased	increased expression	–	–	–
Brc1ccc(Nc2nc(-c3ccccc3)cs2)cc1 [RCGD 423, N-(4-Bromophenyl)-4-phenyl-1,3-thiazol-2-amine]	increased	–	promotes increases	stimulates	helped maintain
